Test results taken from patent US20120165384A1, “INHIBITION OF HISTONE ACETYLTRANSFERASES BY CTK7A AND METHODS THEREOF” (JAWAHARLAL NEHRU CENTRE FOR ADVANCED SCIENTIFIC RESEARCH, priority 2009, published 2012).

Columns and labels:
SIRT2 = target: T1, SIRT2 (Homo sapiens, UniProt Q8IXJ6); experiment: SirT2 deacetylase assay; type: biochemical; settings: even at 100 μM
T1 construct: made in house
T1 sequence (Q8IXJ6 1-389): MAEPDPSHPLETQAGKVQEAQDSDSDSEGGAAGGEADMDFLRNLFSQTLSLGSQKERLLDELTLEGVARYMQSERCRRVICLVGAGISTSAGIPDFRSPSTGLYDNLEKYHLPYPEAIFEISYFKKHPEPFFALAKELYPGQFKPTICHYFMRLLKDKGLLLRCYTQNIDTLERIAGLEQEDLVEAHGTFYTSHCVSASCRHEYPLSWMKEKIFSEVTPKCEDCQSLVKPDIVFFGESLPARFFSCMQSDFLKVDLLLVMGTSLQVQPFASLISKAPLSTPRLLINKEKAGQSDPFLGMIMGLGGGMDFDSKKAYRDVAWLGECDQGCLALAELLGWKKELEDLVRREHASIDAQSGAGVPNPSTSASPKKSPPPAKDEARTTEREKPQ
Description: (§1) The deacetylation assay was performed as per standard protocol^31. For SirT2 deacetylase assay, 50 ng of bacterially expressed, recombinant enzyme was added in the presence or absence of cofactor NAD^+. HMTase was performed as reported earlier^31.

full length p300 = target: T2, full length p300 (Homo sapiens, UniProt Q09472); experiment: p300 autoacetylation assay in vitro (3H-acetyl CoA, fluorography/autoradiography); type: biochemical; settings: in vitro, concentration dependent
T2 construct: hexahistidine; made in house; host or cells: baculovirus-infected Sf21 cells
T2 sequence (Q09472 whole entry, species assumed): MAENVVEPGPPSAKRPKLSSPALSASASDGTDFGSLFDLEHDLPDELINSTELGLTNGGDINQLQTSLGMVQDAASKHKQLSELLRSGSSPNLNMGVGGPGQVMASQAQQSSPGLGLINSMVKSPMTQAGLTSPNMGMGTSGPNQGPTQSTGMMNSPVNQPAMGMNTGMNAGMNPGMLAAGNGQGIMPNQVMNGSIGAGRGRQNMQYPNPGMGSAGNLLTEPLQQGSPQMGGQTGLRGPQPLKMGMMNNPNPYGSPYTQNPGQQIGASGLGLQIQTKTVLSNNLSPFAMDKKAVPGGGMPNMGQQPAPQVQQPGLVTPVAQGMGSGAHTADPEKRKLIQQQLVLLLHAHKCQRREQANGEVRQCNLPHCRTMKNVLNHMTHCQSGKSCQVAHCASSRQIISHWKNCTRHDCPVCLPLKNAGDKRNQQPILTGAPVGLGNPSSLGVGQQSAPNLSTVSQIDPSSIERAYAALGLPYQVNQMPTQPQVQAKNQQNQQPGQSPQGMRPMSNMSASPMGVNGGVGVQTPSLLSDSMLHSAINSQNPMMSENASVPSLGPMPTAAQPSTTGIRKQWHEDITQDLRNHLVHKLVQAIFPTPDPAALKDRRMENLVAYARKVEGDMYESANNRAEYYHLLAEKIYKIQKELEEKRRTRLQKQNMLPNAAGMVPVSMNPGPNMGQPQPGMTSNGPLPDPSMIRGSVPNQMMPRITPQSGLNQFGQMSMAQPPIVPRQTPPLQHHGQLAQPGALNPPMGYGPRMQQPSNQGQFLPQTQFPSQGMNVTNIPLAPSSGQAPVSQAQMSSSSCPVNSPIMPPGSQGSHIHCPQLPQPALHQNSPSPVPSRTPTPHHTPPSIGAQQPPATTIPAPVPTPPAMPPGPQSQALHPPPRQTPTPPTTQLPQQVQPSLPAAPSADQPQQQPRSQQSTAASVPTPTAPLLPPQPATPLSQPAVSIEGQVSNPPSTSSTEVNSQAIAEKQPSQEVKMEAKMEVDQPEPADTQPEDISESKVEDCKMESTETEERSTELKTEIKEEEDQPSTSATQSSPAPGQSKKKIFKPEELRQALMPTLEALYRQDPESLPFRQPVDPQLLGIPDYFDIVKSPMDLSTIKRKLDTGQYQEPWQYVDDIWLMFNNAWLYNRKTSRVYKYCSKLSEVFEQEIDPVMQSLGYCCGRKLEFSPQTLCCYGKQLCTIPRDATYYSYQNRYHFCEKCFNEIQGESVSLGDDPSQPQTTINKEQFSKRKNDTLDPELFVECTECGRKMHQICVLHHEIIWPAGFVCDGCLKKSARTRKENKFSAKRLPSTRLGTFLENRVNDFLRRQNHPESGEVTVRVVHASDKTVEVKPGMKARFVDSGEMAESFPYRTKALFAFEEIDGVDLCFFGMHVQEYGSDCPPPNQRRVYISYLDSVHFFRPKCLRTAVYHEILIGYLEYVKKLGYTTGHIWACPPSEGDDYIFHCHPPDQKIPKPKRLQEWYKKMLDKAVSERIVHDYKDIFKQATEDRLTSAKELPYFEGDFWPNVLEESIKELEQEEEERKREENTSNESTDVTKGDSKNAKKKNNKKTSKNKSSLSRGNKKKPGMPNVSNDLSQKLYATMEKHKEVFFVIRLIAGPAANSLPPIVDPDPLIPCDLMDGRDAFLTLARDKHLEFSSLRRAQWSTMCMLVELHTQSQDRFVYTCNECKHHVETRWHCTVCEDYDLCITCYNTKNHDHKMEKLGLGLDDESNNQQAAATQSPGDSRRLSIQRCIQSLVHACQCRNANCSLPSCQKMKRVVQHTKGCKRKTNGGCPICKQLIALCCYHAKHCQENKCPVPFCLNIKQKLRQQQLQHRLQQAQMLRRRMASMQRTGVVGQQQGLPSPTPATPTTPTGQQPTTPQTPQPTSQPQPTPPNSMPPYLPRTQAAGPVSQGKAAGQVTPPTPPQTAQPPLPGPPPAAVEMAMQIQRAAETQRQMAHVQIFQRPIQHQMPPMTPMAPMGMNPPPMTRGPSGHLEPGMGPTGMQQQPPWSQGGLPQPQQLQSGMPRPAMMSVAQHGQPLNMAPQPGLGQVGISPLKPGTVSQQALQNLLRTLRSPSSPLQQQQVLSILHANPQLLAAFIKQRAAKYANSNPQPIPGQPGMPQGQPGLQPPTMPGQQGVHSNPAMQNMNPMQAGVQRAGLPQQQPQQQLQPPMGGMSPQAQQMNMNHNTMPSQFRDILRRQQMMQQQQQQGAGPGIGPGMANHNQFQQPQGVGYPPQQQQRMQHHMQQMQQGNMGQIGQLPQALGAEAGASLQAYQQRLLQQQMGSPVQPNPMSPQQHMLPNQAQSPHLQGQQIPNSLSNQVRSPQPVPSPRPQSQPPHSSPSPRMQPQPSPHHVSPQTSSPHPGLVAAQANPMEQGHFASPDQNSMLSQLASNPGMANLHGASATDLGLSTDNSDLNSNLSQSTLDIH
Description: (§2) HAT gel fluorography/autoradiography assays were performed as previously reported^30. Kinetic analysis of p300 HAT inhibition was performed as reported earlier^31 in the presence of (0, 30 and 50 μM) CTK7A. The obtained values were plotted as a lineweaver burk plot using Graphpad Prism software. For p300 Autoacetylation assay, reactions of p300 full length (80 ng) were carried out in HAT assay buffer at 30° C. for 10 minutes with or without the protein (NPM1) followed by addition of 1 μl of 4.7 Ci/mmol [^3H] acetyl CoA (NEN-PerkinElmer) and were further incubated for another 10 min in a 30 μl reaction. GAPDH was used as positive control. The radio-labeled acetylated p300 were processed by fluorography followed by autoradiography.

Tip60 = Tip60 (Homo sapiens, UniProt Q92993); experiment: HAT assay, Tip60; type: biochemical; settings: even at 100 μM
Sequence of Tip60 (Q92993 whole entry, species assumed): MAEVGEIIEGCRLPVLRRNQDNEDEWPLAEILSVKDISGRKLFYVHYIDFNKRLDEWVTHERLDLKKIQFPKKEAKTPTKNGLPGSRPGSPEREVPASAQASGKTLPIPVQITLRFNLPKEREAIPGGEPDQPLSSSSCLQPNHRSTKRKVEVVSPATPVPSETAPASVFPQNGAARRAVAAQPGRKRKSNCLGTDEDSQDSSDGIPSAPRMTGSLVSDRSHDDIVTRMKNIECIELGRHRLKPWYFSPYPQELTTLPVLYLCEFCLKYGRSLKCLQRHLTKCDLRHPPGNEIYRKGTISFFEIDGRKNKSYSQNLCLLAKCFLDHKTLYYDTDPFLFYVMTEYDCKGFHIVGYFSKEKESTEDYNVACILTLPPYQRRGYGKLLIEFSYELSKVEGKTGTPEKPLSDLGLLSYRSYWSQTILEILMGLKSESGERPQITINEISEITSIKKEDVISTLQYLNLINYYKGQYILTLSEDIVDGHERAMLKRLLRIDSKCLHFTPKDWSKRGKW
Description: as §2

KB cells [1] = experiment: In vitro wound-healing assay; type: cell-based; settings: 24 h, in the presence of serum
Description: Cells in medium containing 10% FBS were seeded in 30 mm dishes. After the cells grew to confluence, wounds of constant diameter were made by sterile plastic pipette tip (200-μl) by scratching the monolayers. Cells were washed with the serum free medium twice and refreshed with medium with or without 10% FBS. Cells were treated with or without the HAT inhibitor for 24 h along with 10% serum. The wound photographs were taken under phase-contrast microscope. Serum positive and negative cells act as positive and negative control for the experiments respectively.

KB cells [2] = experiment: Senescence-associated β-gal (SA-β-gal) activity analysis; type: cell-based
Description: SA-β-gal activity was analyzed in KB cells as described earlier^47.

p300 = p300 (Homo sapiens, UniProt Q09472); experiment: HAT assay with recombinant p300; type: biochemical; parameters: hexahistidine; made in house; host or cells: baculovirus-infected Sf21 cells
Sequence of p300 (Q09472 whole entry, species assumed): as the sequence (Q09472 whole entry, species assumed) above
Description: (§3) Recombinant baculovirus expressing full-length FLAG-tagged CARM1,CBP and PCAF were purified by immunoaffinity chromatography using M2-agarose beads followed by elution with FLAG peptide. Baculovirus-expressed full-length hexahistidine-tagged p300, and G9a were purified using Ni-NTA affinity chromatography as described previously^30.
as §2

CARM1 = target: T3, CARM1 (Homo sapiens, UniProt Q86X55); experiment: Histone methyltransferase (HMTase) assay, CARM1; type: biochemical; settings: even at 100 μM
T3 construct: Recombinant baculovirus expressing full-length FLAG-tagged CARM1,CBP and PCAF; FLAG; made in house; host or cells: baculovirus-infected Sf21 cells
T3 sequence (Q86X55 1-608): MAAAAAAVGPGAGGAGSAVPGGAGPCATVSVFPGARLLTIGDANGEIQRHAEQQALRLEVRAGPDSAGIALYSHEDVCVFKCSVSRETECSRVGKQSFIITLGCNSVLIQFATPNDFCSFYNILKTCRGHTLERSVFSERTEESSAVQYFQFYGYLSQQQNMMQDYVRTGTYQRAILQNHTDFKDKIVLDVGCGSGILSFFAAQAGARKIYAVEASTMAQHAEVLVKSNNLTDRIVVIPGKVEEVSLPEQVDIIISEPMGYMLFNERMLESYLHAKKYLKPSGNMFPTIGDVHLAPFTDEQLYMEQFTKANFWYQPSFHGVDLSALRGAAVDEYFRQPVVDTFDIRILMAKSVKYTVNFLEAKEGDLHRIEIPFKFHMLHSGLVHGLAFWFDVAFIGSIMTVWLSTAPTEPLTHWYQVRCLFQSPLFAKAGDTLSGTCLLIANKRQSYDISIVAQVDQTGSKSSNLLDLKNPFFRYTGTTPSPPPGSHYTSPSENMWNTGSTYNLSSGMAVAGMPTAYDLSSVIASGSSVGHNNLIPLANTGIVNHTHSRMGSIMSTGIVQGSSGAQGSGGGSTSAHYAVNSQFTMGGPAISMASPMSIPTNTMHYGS
Description: as §3, §1

PCAF = target: T4, PCAF (Homo sapiens, UniProt Q92831); experiment: HAT assay with recombinant PCAF; type: biochemical
T4 construct: Recombinant baculovirus expressing full-length FLAG-tagged CARM1,CBP and PCAF; FLAG; made in house; host or cells: baculovirus-infected Sf21 cells
T4 sequence (Q92831 whole entry, species assumed): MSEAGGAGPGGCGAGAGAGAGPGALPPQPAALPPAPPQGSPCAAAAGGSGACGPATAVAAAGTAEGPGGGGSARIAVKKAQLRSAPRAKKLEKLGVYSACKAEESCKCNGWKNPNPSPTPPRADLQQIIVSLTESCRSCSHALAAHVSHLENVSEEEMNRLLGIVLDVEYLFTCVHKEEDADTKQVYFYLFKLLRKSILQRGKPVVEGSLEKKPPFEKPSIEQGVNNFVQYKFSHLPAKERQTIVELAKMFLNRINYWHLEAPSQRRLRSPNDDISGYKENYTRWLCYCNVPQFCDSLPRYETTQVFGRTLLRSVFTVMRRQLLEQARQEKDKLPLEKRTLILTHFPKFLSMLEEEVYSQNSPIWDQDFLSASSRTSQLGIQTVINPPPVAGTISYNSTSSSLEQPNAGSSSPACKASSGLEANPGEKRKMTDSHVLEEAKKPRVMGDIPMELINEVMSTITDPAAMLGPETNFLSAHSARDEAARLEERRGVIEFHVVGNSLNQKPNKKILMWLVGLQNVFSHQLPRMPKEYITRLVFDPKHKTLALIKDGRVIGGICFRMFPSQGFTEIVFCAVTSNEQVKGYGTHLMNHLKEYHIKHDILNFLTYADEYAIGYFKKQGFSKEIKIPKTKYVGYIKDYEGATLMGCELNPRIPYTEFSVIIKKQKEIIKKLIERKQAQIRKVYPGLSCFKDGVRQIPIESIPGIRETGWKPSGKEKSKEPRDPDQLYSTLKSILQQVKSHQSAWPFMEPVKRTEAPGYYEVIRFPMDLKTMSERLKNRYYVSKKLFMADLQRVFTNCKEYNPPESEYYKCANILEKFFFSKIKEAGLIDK
Description: as §3, §2

COc1cc([O-])cc(C=CC2=NN(c3ccc(C(=O)[O-])cc3)C(C=Cc3cc([O-])cc(OC)c3)C2)c1.[Na+].[Na+].[Na+] (stereo not drawn) [CTK7A, Sodium 4-(3,5-bis(3-methoxy-5-oxidostyryl)-4,5dihydro-1H-pyrazole-1-yl)benzoate]
effect on SIRT2 activity (SIRT2): unaffected | inhibition of p300 autoacetylation (full length p300): inhibit | effect on Tip60 activity (Tip60): unaffected | wound healing activity (KB cells [1]): reduction | expression of senescence associated beta-galactosidase (SA-β-gal) (KB cells [2]): induced | inhibition of p300 HAT activity (p300): inhibit | type of inhibition pattern for p300 (p300; both substrates, acetyl-coA and core histone, 0, 30 and 50 μM): non-competitive | effect on CARM1 activity (CARM1): unaffected | inhibition of PCAF HAT activity (PCAF): inhibit
